# In patent publication US12479849B2, “EGFR inhibitors for the treatment of cancer” (Hoffmann-La Roche Inc., priority 2019, dated 2025):
# Target: T1, EGFR TMLRCS (Homo sapiens, UniProt P00533, C797S/L858R/T790M)
# T1 construct: host or cells: BaF3-TMLRCS (Ba/F3 cells, kept under puromycin selection)
# Test: HTRF Phospho EGFR TMLRCS Assay (Cellular)
# Format: cell-based
# Conditions: BaF3-TMLRCS cell line, 4 hours incubation, Phospho-EGFR HTRF readout
# Method in brief: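 BaF3 cells expressing EGFR L858R/T790M/C797S, 20000/well, treated with compound in dose response for 4 h at 37 °C, 5% CO2. After lysis, phospho-EGFR detected by HTRF with cryptate and d2 antibodies over 4 h at room temperature. Signal taken as 665/616 nm ratio ×10000, normalized.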
# T1 sequence (P00533 25-1210 T790M/C797S/L858R): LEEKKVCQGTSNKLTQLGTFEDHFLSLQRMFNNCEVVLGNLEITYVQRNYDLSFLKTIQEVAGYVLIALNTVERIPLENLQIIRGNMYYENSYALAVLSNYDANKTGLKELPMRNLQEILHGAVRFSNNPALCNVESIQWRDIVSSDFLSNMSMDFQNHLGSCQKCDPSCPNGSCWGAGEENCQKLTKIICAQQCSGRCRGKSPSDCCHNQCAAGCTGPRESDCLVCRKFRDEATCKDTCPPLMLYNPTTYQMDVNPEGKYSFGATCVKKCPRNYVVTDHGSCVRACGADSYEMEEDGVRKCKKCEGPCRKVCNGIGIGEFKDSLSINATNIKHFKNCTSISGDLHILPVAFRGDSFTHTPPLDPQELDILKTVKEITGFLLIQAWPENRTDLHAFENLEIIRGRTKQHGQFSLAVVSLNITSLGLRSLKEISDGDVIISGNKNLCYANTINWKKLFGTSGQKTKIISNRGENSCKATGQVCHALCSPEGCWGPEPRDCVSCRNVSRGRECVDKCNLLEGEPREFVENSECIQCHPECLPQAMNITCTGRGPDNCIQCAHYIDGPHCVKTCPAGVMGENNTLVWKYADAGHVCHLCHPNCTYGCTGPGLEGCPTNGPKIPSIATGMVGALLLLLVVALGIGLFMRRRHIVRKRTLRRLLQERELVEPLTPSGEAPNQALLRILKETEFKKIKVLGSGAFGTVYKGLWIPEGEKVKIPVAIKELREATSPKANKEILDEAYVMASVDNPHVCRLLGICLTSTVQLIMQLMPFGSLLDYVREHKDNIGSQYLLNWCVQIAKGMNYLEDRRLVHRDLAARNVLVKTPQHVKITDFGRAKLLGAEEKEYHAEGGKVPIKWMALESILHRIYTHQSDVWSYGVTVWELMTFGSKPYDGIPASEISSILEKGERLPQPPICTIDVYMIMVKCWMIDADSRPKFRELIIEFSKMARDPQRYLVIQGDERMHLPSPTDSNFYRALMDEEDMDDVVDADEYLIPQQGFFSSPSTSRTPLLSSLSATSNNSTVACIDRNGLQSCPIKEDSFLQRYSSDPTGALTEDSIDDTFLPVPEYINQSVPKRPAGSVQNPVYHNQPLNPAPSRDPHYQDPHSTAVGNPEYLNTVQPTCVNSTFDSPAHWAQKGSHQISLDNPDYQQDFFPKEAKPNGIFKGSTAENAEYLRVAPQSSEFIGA
row,IC50 [nM],SMILES
1,10,CN(CCN1CC(CO)C1)c1ccc(-c2cc(Cl)c3cn(C(C(=O)Nc4nccs4)c4ncn5c4C[C@@H](F)C5)nc3c2Cl)cc1 (some centres unmarked) [Example 89]
2,12,CN(CCN1CC(O)C1)c1ccc(-c2cc(Cl)c3cn(C(C(=O)Nc4nccs4)c4ncn5c4C[C@@H](F)C5)nc3c2Cl)cc1 (some centres unmarked) [Example 90]
3,6,"O=C(Nc1nccs1)C(c1ncn2c1C[C@@H](F)C2)n1cc2c(Cl)cc(-c3ccc(N4CCN5C[C@H](O)C[C@H]5C4)cc3)c(Cl)c2n1 (stereo partly drawn) [Example 93, 2-(4,7-Dichloro-6-(4-((7R,8aS)-7-hydroxyhexahydropyrrolo[1,2-a]pyrazin-2(1H)-yl)phenyl)-2H-indazol-2-yl)-2-((R)-6-fluoro-6,7-dihydro-5H-pyrrolo[1,2-c]imidazol-1-yl)-N-(thiazol-2-yl)acetamide]"
4,20,"O=C(Nc1nccs1)C(c1ncn2c1CCC2)n1cc2c(Cl)cc(-c3ccc(C4CCN(CCF)CC4)cc3)c(Cl)c2n1 (centres unmarked) [Example 103, 2-(4,7-Dichloro-6-(4-(1-(2-fluoroethyl)piperidin-4-yl)phenyl)-2H-indazol-2-yl)-2-(6,7-dihydro-5H-pyrrolo[1,2-c]imidazol-1-yl)-N-(thiazol-2-yl)acetamide]"
5,12,"CCN1CCC(c2ccc(-c3cc(Cl)c4cn(C(C(=O)Nc5nccs5)c5ncn6c5CCC6)nc4c3Cl)cc2)CC1 (centres unmarked) [Example 104, 2-(4,7-Dichloro-6-(4-(1-ethylpiperidin-4-yl)phenyl)-2H-indazol-2-yl)-2-(6,7-dihydro-5H-pyrrolo[1,2-c]imidazol-1-yl)-N-(thiazol-2-yl)acetamide]"
6,8,"Cc1c(-c2ccc(N3CCOCC3)cc2)cc(Cl)c2cn(C(C(=O)Nc3nccs3)c3ncn4c3C[C@@H](F)C4)nc12 (stereo partly drawn) [Example 105, 2-(4-Chloro-7-methyl-6-(4-morpholinophenyl)-2H-indazol-2-yl)-2-((R)-6-fluoro-6,7-dihydro-5H-pyrrolo[1,2-c]imidazol-1-yl)-N-(thiazol-2-yl)acetamide]"
7,7,"Cc1cc(-c2ccc(N3CCOCC3)cc2)c(C)c2nn(C(C(=O)Nc3nccs3)c3ncn4c3C[C@@H](F)C4)cc12 (stereo partly drawn) [Example 118, 2-(4,7-Dimethyl-6-(4-morpholinophenyl)-2H-indazol-2-yl)-2-((R)-6-fluoro-6,7-dihydro-5H-pyrrolo[1,2-c]imidazol-1-yl)-N-(thiazol-2-yl)acetamide]"
8,15,"CCN1CCC(c2ccc(-c3cc(C)c4cn(C(C(=O)Nc5nccs5)c5ncn6c5C[C@@H](F)C6)nc4c3C)cc2)CC1 (stereo partly drawn) [Example 120, 2-(6-(4-(1-Ethylpiperidin-4-yl)phenyl)-4,7-dimethyl-2H-indazol-2-yl)-2-((R)-6-fluoro-6,7-dihydro-5H-pyrrolo[1,2-c]imidazol-1-yl)-N-(thiazol-2-yl)acetamide]"
9,8,"CCN1CCN(c2ccc(-c3cc(C)c4cn(C(C(=O)Nc5nccs5)c5ncn6c5C[C@@H](F)C6)nc4c3C)cc2)CC1 (stereo partly drawn) [Example 121, 2-(6-(4-(4-Ethylpiperazin-1-yl)phenyl)-4,7-dimethyl-2H-indazol-2-yl)-2-((R)-6-fluoro-6,7-dihydro-5H-pyrrolo[1,2-c]imidazol-1-yl)-N-(thiazol-2-yl)acetamide]"
10,19,"CCN(CC)CC1(c2ccc(-c3cc(C)c4cn(C(C(=O)Nc5nccs5)c5ncn6c5C[C@@H](F)C6)nc4c3C)cc2)CC1 (stereo partly drawn) [Example 122, 2-(6-(4-(1-((Diethylamino)methyl)cyclopropyl)phenyl)-4,7-dimethyl-2H-indazol-2-yl) ((R)-6-fluoro-6,7-dihydro-5H-pyrrolo[1,2-c]imidazol-1-yl)-N-(thiazol-2-yl)acetamide]"
11,15,CCN(C)CCc1ccc(-c2cc(C)c3cn(C(C(=O)Nc4nccs4)c4ncn5c4C[C@@H](F)C5)nc3c2C)cc1 (some centres unmarked) [Example 123]
12,5,"Cc1cc(-c2ccc(N3CCOCC3)nc2)c(C)c2nn(C(C(=O)Nc3nccs3)c3ncn4c3C[C@@H](F)C4)cc12 (stereo partly drawn) [Example 124, 2-(4,7-Dimethyl-6-(6-morpholinopyridin-3-yl)-2H-indazol-2-yl)-2-((R)-6-fluoro-6,7-dihydro-5H-pyrrolo[1,2-c]imidazol-1-yl)-N-(thiazol-2-yl)acetamide]"
13,11,"CCc1c(-c2ccc(N3CCOCC3)cc2)cc(Cl)c2cn(C(C(=O)Nc3nccs3)c3ncn4c3C[C@@H](F)C4)nc12 (stereo partly drawn) [Example 125, 2-(4-Chloro-7-ethyl-6-(4-morpholinophenyl)-2H-indazol-2-yl)-2-((R)-6-fluoro-6,7-dihydro-5H-pyrrolo[1,2-c]imidazol-1-yl)-N-(thiazol-2-yl)acetamide]"
14,9,"Cc1cc(-c2ccc(N3CCOCC3)cc2)c(Cl)c2nn(C(C(=O)Nc3nccs3)c3ncn4c3CCC4)cc12 (centres unmarked) [Example 126, 2-(7-Chloro-4-methyl-6-(4-morpholinophenyl)-2H-indazol-2-yl)-2-(6,7-dihydro-5H-pyrrolo[1,2-c]imidazol-1-yl)-N-(thiazol-2-yl)acetamide]"
15,5,"Cc1cc(-c2ccc(N3CCOCC3)cc2)c(Cl)c2nn(C(C(=O)Nc3nccs3)c3ncn4c3C[C@@H](F)C4)cc12 (stereo partly drawn) [Example 128, 2-(7-Chloro-4-methyl-6-(4-morpholinophenyl)-2H-indazol-2-yl)-2-((R)-6-fluoro-6,7-dihydro-5H-pyrrolo[1,2-c]imidazol-1-yl)-N-(thiazol-2-yl)acetamide]"
16,12,"COCCN1CCC(c2ccc(-c3cc(C)c4cn(C(C(=O)Nc5nccs5)c5ncn6c5C[C@@H](F)C6)nc4c3Cl)cc2)CC1 (stereo partly drawn) [Example 130, 2-(7-Chloro-6-(4-(1-(2-methoxyethyl)piperidin-4-yl)phenyl)-4-methyl-2H-indazol-2-yl)-2-((R)-6-fluoro-6,7-dihydro-5H-pyrrolo[1,2-c]imidazol-1-yl)-N-(thiazol-2-yl)acetamide]"
17,32,"O=C(Nc1nccs1)C(c1ncn2c1CCC2)n1cc2c(Cl)cc(-c3ccc(N4CCOCC4)cc3)c(Br)c2n1 (centres unmarked) [Example 134, 2-(7-Bromo-4-chloro-6-(4-morpholinophenyl)-2H-indazol-2-yl)-2-(6,7-dihydro-5H-pyrrolo[1,2-c]imidazol-1-yl)-N-(thiazol-2-yl)acetamide]"
